# Reference: publication PMC4890880 (ACS infectious diseases, 2016)
# Like-named read-outs stand apart in the source and are kept apart here.
# Assays:
# HepG2-A16-CD81EGFP cells = conditions: for IC50: read-out: Tox_IC50, HepG2 cytotoxicity
# [1] = test system: Plasmodium berghei (Pb-Luc) exoerythrocytic-stage parasites; conditions: for IC50: read-out: PbLuc_IC50
# [2] = sheet 2nd round, maximal inhibition in dose response
# [3] = first series, fraction of control
# [4] = second series, fraction of control
# [5] = 2nd round, maximal inhibition in dose series
# [6] = first series of columns, fraction of control
# [7] = second series of columns (replicate), fraction of control
structure (smiles),measurement,setting,value
C/C=C/c1ccc([C@H]2[C@@H](CO)N(CC3CCCCC3)[C@H]2CNC(C)C)cc1 [BRD-K63968422-001-01-5],IC50,HepG2-A16-CD81EGFP cells; sheet 2nd round,> 10 µM
same,Tox_max_inhibition (%),HepG2-A16-CD81EGFP cells; [2],9%
same,normalized signal at concentration 10,"[1]; first series of dose-response columns, fraction of control",0.94
same,normalized signal at concentration 0.000508053,[1]; [3],1.00
same,normalized signal at concentration 0.00152416,[1]; [3],1.12
same,normalized signal at concentration 0.00457247,[1]; [3],0.90
same,normalized signal at concentration 0.0137174,[1]; [3],1.14
same,normalized signal at concentration 0.0411523,[1]; [3],1.01
same,normalized signal at concentration 0.123457,[1]; [3],0.97
same,normalized signal at concentration 0.37037,[1]; [3],0.96
same,normalized signal at concentration 1.11111,[1]; [3],0.99
same,normalized signal at concentration 3.33333,[1]; [3],1.01
same,IC50,"[1]; sheet 2nd round, Broad compounds, dose response",> 10 µM
same,normalized signal at concentration 10,"[1]; second series of dose-response columns, fraction of control",0.85
same,normalized signal at concentration 0.000508053,[1]; [4],0.78
same,normalized signal at concentration 0.00152416,[1]; [4],1.01
same,normalized signal at concentration 0.00457247,[1]; [4],1.16
same,normalized signal at concentration 0.0137174,[1]; [4],1.05
same,normalized signal at concentration 0.0411523,[1]; [4],1.10
same,normalized signal at concentration 0.123457,[1]; [4],1.05
same,normalized signal at concentration 0.37037,[1]; [4],1.24
same,normalized signal at concentration 1.11111,[1]; [4],1.02
same,normalized signal at concentration 3.33333,[1]; [4],1.10
same,PbLuc_max_inhibition (%),[1]; [2],22%
C[C@@H]1CN([C@H](C)CO)C(=O)c2cccc(NC(=O)c3ccc(-c4nccs4)cc3)c2O[C@H]1CN(C)C(=O)Nc1ccc(C(F)(F)F)cc1 [BRD-K64517877-001-01-9],Tox_max_inhibition (%),HepG2-A16-CD81EGFP cells; [5],9%
same,IC50,"HepG2-A16-CD81EGFP cells; 2nd round, unit inferred",> 10 µM
same,PbLuc_max_inhibition (%),[1]; [5],27%
same,normalized signal at 0.000508053 (first series),"[1]; concentration 0.000508053, first replicate series, fraction of control",0.8077
same,normalized signal at 0.000508053 (second series),"[1]; concentration 0.000508053, second replicate series, fraction of control",1.002
same,normalized signal at 0.00152416 (first series),"[1]; concentration 0.00152416, first replicate series, fraction of control",0.8666
same,normalized signal at 0.00152416 (second series),"[1]; concentration 0.00152416, second replicate series, fraction of control",0.9304
same,normalized signal at 0.00457247 (first series),"[1]; concentration 0.00457247, first replicate series, fraction of control",0.8925
same,normalized signal at 0.00457247 (second series),"[1]; concentration 0.00457247, second replicate series, fraction of control",0.7834
same,normalized signal at 0.0137174 (first series),"[1]; concentration 0.0137174, first replicate series, fraction of control",1.197
same,normalized signal at 0.0137174 (second series),"[1]; concentration 0.0137174, second replicate series, fraction of control",0.7634
same,normalized signal at 0.0411523 (first series),"[1]; concentration 0.0411523, first replicate series, fraction of control",0.9517
same,normalized signal at 0.0411523 (second series),"[1]; concentration 0.0411523, second replicate series, fraction of control",0.9123
same,normalized signal at 0.123457 (first series),"[1]; concentration 0.123457, first replicate series, fraction of control",1.1239
same,normalized signal at 0.123457 (second series),"[1]; concentration 0.123457, second replicate series, fraction of control",0.9202
same,normalized signal at 0.37037 (first series),"[1]; concentration 0.37037, first replicate series, fraction of control",0.912
same,normalized signal at 0.37037 (second series),"[1]; concentration 0.37037, second replicate series, fraction of control",0.776
same,normalized signal at 1.11111 (first series),"[1]; concentration 1.11111, first replicate series, fraction of control",0.8174
same,normalized signal at 1.11111 (second series),"[1]; concentration 1.11111, second replicate series, fraction of control",0.8082
same,normalized signal at 3.33333 (first series),"[1]; concentration 3.33333, first replicate series, fraction of control",0.9935
same,normalized signal at 3.33333 (second series),"[1]; concentration 3.33333, second replicate series, fraction of control",0.7269
same,normalized signal at 10 (first series),"[1]; concentration 10, first replicate series, fraction of control",1.005
same,normalized signal at 10 (second series),"[1]; concentration 10, second replicate series, fraction of control",0.7551
same,IC50,"[1]; 2nd round, Broad DOS compounds, unit not printed (dose series head 10 to 0.000508053)",> 10 µM
CC(C)NC(=O)NCC[C@@H]1CC[C@H](NS(=O)(=O)c2ccc(Oc3ccccc3)cc2)[C@@H](CO)O1 [BRD-K66184091-001-01-6],IC50,HepG2-A16-CD81EGFP cells; sheet 2nd round,> 10 µM
same,Tox_max_inhibition (%),HepG2-A16-CD81EGFP cells; [2],7%
same,normalized signal at concentration 0.000508053,[1]; [6],0.909
same,normalized signal at concentration 0.00152416,[1]; [6],1.056
same,normalized signal at concentration 0.00457247,[1]; [6],1.03
same,normalized signal at concentration 0.0137174,[1]; [6],0.8503
same,normalized signal at concentration 0.0411523,[1]; [6],0.8577
same,normalized signal at concentration 0.123457,[1]; [6],0.9757
same,normalized signal at concentration 0.37037,[1]; [6],0.9475
same,normalized signal at concentration 1.11111,[1]; [6],1.003
same,normalized signal at concentration 3.33333,[1]; [6],1.282
same,normalized signal at concentration 10,[1]; [6],1.243
same,IC50,"[1]; sheet 2nd round, Pb-Luc exoerythrocytic stage, 10-point dose response, top concentration 10",> 10 µM
same,normalized signal at concentration 0.000508053,[1]; [7],0.9487
same,normalized signal at concentration 0.00152416,[1]; [7],0.9281
same,normalized signal at concentration 0.00457247,[1]; [7],0.7932
same,normalized signal at concentration 0.0137174,[1]; [7],0.7902
same,normalized signal at concentration 0.0411523,[1]; [7],0.9772
same,normalized signal at concentration 0.123457,[1]; [7],0.9341
same,normalized signal at concentration 0.37037,[1]; [7],0.8543
same,normalized signal at concentration 1.11111,[1]; [7],0.8244
same,normalized signal at concentration 3.33333,[1]; [7],0.9837
same,normalized signal at concentration 10,[1]; [7],0.9187
same,PbLuc_max_inhibition (%),[1]; [2],21%
